`CCCCC1(CCCC)CS(=O)(=O)c2ccc(N(C)C)cc2[C@@H](c2cccc(NC(=O)Nc3cccc(C[N+]45CCN(CC4)CC5)c3)c2)[C@H]1O.[Cl-]`: the melting point lay in the range of 246 to 248 °C.

On to `CCCC[C@]1(CC)CS(=O)(=O)c2ccc(N3CCOCC3)cc2[C@@H](c2ccc(F)cc2)[C@H]1O` [Compound 83, (3α,4β,5β)3-Butyl-3-ethyl-5-(4′-fluorophenyl)-4-hydroxy-7-(1-morpholinyl)-2,3,4,5-tetrahydrobenzothiepine-1,1-dioxide], for which the melting point was in the range of 176.5 to 187.5 °C.

For the molecule `CCCCC1(CCCC)CS(=O)(=O)c2ccc(N(C)C)cc2[C@@H](c2ccc(OCc3ccc(C(=O)O)cc3)cc2)[C@H]1O` [Example 1424, (4R-cis)-4-[[4-[3,3-Dibutyl-7-(dimethylamino)-2,3,4,5-tetrahydro-4-hydroxy-1,1-dioxido-1-benzothiepin-5-yl]phenoxy]methyl]benzoic Acid], the melting point was in the range of 156 to 159 °C.

Consider `CCCCC1(CCCC)CS(=O)(=O)c2ccc(N(C)C)cc2[C@@H](c2ccc(OCCOCCC(C(=O)O)C(=O)O)cc2)[C@H]1O` [Example 1432, (4S-cis)-[2-[2-[4-[3,3-Dibutyl-7-(dimethylamino)-2,3,4,5-tetrahydro-4-hydroxy-1,1-dioxido-1-benzothiepin-5-yl]phenoxy]ethoxy]ethyl]propanedioic Acid], for which the melting point came to 119.5 °C.

On to `CCCCC1(CCCC)CS(=O)(=O)c2ccc(N(C)C)cc2[C@@H](c2ccc(OCCCCCNC(=N)N)cc2)[C@H]1O` [Example 1422, (4R-cis)-[5-[4-[3,3-Dibutyl-7-(dimethylamino)-2,3,4,5-tetrahydro-4-hydroxy-1,1-dioxido-1-benzothiepin-5-yl]phenoxy]pentyl]guanidine], for which the melting point was 67 to 72.5 °C.

For the molecule `CCCCC1(CCCC)CS(=O)(=O)c2ccc(N(C)C)cc2[C@@H](c2ccc(OCCCCCC(C(=O)O)C(=O)O)cc2)[C@H]1O` [Example 1413, (4S-cis)-[5-[4-[3,3-Dibutyl-7-(dimethylamino)-2,3,4,5-tetrahydro-4-hydroxy-1,1-dioxido-1-benzothiepin-5-yl]phenoxy]pentyl]propanedioic Acid], the melting point stood at 118 °C.

In turn, `CCCCC1(CCCC)CS(=O)(=O)c2ccc(N(C)C)cc2[C@@H](c2cccc(NC(=O)OCCC[N+]34CCN(CC3)CC4)c2)[C@H]1O.[Cl-]` gave a melting point of 218 to 225 °C.

As to `CCCCC1(CCCC)CS(=O)(=O)c2ccc(N(C)C)cc2[C@@H](c2ccc(OCCCCCOc3cc(C(=O)O)nc(C(=O)O)c3)cc2)[C@H]1O` [Example 1421, (4R-cis)-4-[[5-[4-[3,3-Dibutyl-7-(dimethylamino)-2,3,4,5-tetrahydro-4-hydroxy-1,1-dioxido-1-1benzothiepin-5-yl]phenoxy]pentyl]oxy]-2,6-pyridinecarboxylic Acid], the melting point worked out at 143 °C.

`CCCCC1(CCCC)CS(=O)(=O)c2ccc(N(C)C)cc2[C@@H](c2ccc(OCc3cccc(CCC(=O)O)n3)cc2)[C@H]1O` [Example 1430, (4R-cis)-6-[[4-[3,3-Dibutyl-7-(dimethylamino)-2,3,4,5-tetrahydro-4-hydroxy-1,1-dioxido-1-benzothiepin-5-yl]phenoxy]methyl]-2-pyridinepropanoic Acid]: the melting point is 105 to 107 °C.

`CCCCC1(CCCC)CS(=O)(=O)c2ccc(N(C)C)cc2[C@@H](c2ccc(OCCCCCc3nn[nH]n3)cc2)[C@H]1O` [Example 1420, (4R-cis)-3,3-Dibutyl-7-(dimethylamino)-2,3,4,5-tetrahydro-5-[4-[[5-(1H-tetrazol-5-yl)pentyl]oxy]phenyl]-1-benzothiepin-4-ol 1,1-Dioxide] gave a melting point of 80 to 85 °C.

As for `CCCCC1(CCCC)CS(=O)(=O)c2ccc(N(C)C)cc2[C@@H](c2ccc(OCCCCS(N)(=O)=O)cc2)[C@H]1O` [Example 1405], the melting point is 108 to 110 °C.

The molecule `CCCCC1(CCCC)CS(=O)(=O)c2ccc(N(C)C)cc2[C@@H](c2ccc(OCCCCC[N+](C)(C)CC[N+](C)(C)CC)cc2)[C@H]1O` [Example 1418, (4R-cis)-N-[5-[4-[3,3-Dibutyl-7-(dimethylamino)-2,3,4,5-tetrahydro-4-hydroxy-1,1-dioxido-1-benzothiepin-5-yl]phenoxy]pentyl]-N′-ethyl-N,N,N′,N′-tetramethyl-1,2-ethanediaminium Dichloride] returned a melting point of 193 to 197 °C.

The molecule `CCCC[C@]1(CC)CS(=O)(=O)c2ccc(N3CCCC3)cc2[C@@H](c2ccc(F)cc2)[C@H]1O` [Compound 82, (3α,4β,5β)3-Butyl-3-ethyl-5-(4′-fluoropheny)-4-hydroxy-7-(1-pyrrolidinyl)-2,3,4,5-tetrahydrobenzothiepine-1,1-dioxide] returned a melting point of 174.5 to 177 °C.

Usually melting point stands for the temperature, or range, at which the solid turns liquid.

For the origin of these results see US6740663B2, “Mono- and di-fluorinated benzothiepine compounds as inhibitors of apical sodium co-dependent bile acid transport (ASBT) and taurocholate uptake” (G.D. Searle, LLC, priority 2001, dated 2004).
